A short description of this test: Metal cation trapping by dendrimer (dialysis, ICP-AES). The method, then: Une solution aqueuse contenant l'ion métallique (6 mL, Cf = 4.10^-5 mol/L) a été mélangée avec une solution aqueuse de II.6 (6 mL; 2.10^-6 mol/L); la solution résultante a été agitée pendant 2h à une vitesse d'agitation de 300 tours/min à température ambiante.
Une dialyse d'une heure a été réalisée en utilisant une membrane d'ester de cellulose (Cutoff 1000) dans de l'eau distillée (1L). Pour déterminer la quantité d'ion métallique extraite par le dendrimère, 10 mL de l'eau de dialyse ont été prélevés pour l'analyse ICP-AES (Spectrométrie à plasma à couplage inductif - Spectrométrie d'Emission Atomique).
L'analyse de l'eau de dialyse par ICP-AES (Thermo Scientific, iCAP 6000 Séries) a permis d'obtenir la quantité de métal résiduelle. La quantité d'ions (M^n+) présente dans la phase dendrimère a été obtenue par différence entre la quantité initiale et la quantité résiduelle.
Le pourcentage de rétention (% R) a été calculé selon l'expression suivante : %R = (n(Maq(initial))−n(Maq(final)))/(n Maq(initial)) × 100 [formula] avec n (Maq(initial)) et n (Maq(final)), les nombres de moles d'ions métalliques respectivement dans la solution de départ et dans l'eau de dialyse après extraction.

On to `OCC(O)COCC(COCC(COCC(COCC(COCC(COCC(O)CO)OCC(O)CO)OCC(COCC(O)CO)OCC(O)CO)OCC(COCC(COCC(O)CO)OCC(O)CO)OCC(COCC(O)CO)OCC(O)CO)OCC(COCC(O)CO)OCC(O)CO)OCC(O)CO` (stereo not shown) [II.6], for which the “% R” value by setting is: (Ag^+, Rapport n (Maq (initial)) / n (II.6) = 104,5) 88%; (Cd^2+, Rapport n (Maq (initial)) / n (II.6) = 73) 95,5%; (Ce^3+, Rapport n (Maq (initial)) / n (II.6) = 93) more than 95%; (Cu^2+, Rapport n (Maq (initial)) / n (II.6) = 63,6) 75%; (Hg^2+, Rapport n (Maq (initial)) / n (II.6) = 140) 85%; (Ni^2+, Rapport n (Maq (initial)) / n (II.6) = 85,5) 89%. For the same molecule, the “% R” value (Pb^2+, Rapport n (Maq (initial)) / n (II.6) = 77) is 99%.

(Values after patent EP3826985B1, “DENDRIMER-TYPE COMPOUNDS, METHODS FOR PRODUCING SAME, AND USES THEREOF” (Université De Reims Champagne-Ardenne, priority 2018, dated 2020).)
